According to PubChem BioAssay (NCI):
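Where inhibition never reached the appropriate level, the endpoint shown equals the highest concentration tested. Otherwise, values were interpolated linearly from a five-concentration, 48-hour dose response in 96-well plates. Abbreviation: GI50, concentration required for 50% inhibition of growth. Definition used: TGI = concentration required for complete inhibition of growth.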 Where a SMILES comes first, the peptide text is derived from it. [ ]: non-standard residue; d: D form. The star is where a group is joined. Lauroyl = CCCCCCCCCCCC(=O)*; Aib = CC(C)(N)C(=O)O; βAla = NCCC(=O)O

System: MDA-MB-468 breast
Assay: growth of human tumour cells (NCI), 48 h

| SMILES | GI50 | TGI |
| --- | --- | --- |
| NC(=O)/C=C/C(=O)c1c(Cl)cccc1Cl | 0.292 µM | 0.971 µM |
| Nc1ccc([N+](=O)[O-])cc1N=C/C=C/c1ccccc1 | 4.68 µM | 43 µM |
| CCN1CCN(C(=O)[C@@]2(C)CC[C@]3(C)CC[C@]4(C)C(=CC(=O)[C@@H]5[C@@]6(C)CC[C@H](OC7C[C@@H](O)[C@@H](O)C(C)O7)C(C)(C)[C@@H]6CC[C@]54C)[C@@H]3C2)CC1 (stereo partly drawn) | 1.49 µM | 6.17 µM |
| CCOC(=O)C1=CN(C)C=C(C(=O)OCC)C1c1cc(Br)c(OCC)c(OC)c1 | > 100 µM | > 100 µM |
| O=C(O)COc1ccc2c(=O)c3sc4c(=O)c5ccccc5c(=O)c4c3c(=O)c2c1 | 14.9 µM | 35.4 µM |
| CCCCCCCCCCCC(=O)NC(C)(C)C(=O)N1CCCC1C(=O)NC(C)(C)C(=O)NC(C)(C)C(=O)N1CCCC1C(=O)NC(C)(C)C(=O)NC(C)(C)C(=O)N1CCCC1C(=O)NC(C)C(=O)NCCC(=O)NC(C)C(=O)NC(C)(C)C(=O)NC(C)(C)C(=O)NC(C)(C)C(=O)NCCC(=O)NC(C)(C)C(=O)NC(C)(C)C(=O)NC(C)(C)C(=O)NC(C)C(=O)NCCC(=O)O (stereo not drawn) (Lauroyl-[Aib]P[Aib][Aib]P[Aib][Aib]PA[βAla]A[Aib][Aib][Aib][βAla][Aib][Aib][Aib]A[βAla]-OH; configuration not given here) | 0.328 µM | 0.739 µM |
| Oc1ccc(Nc2ncnc3c2sc2ncccc23)cc1 | 0.0751 µM | 21 µM |
| COC(=O)c1ccc2c(c1)nc(NC(=O)c1ccccc1)n2CCCc1ccccc1 | 3.05 µM | > 80 µM |
| COc1ccc(/C=C\[N+](=O)[O-])cc1OC | 3.05 µM | 11.3 µM |
| COc1cccc(CC(C)=C(c2ccc(OCCN(C)C)cc2)c2ccc(OCCN(C)C)cc2)c1 | 1.16 µM | 5.26 µM |
| COc1cccc(F)c1C(=O)c1cnc(NC2CCN(S(C)(=O)=O)CC2)nc1N | 3.75 µM | 9.91 µM |
| N#Cc1c(NC(=O)NCc2ccccc2)sc2c1CCCCC2 | 0.317 µM | 3.52 µM |
| CC1(C)N=C(N)N=C(N)N1c1ccc(CCCCc2ccc(Cl)cc2S(=O)(=O)F)c(Cl)c1 | 0.569 µM | 5.87 µM |
| c1ccc(-c2nnc(-c3ccccn3)s2)nc1 | 9.76 µM | > 100 µM |
| CC1(C)[C@@H](O)CC[C@]2(C)[C@H]3CC[C@@H]4[C@H]5[C@H](C(=O)/C=C\c6ccccn6)CC[C@]5(O)CC[C@@]4(C)[C@]3(C)CC[C@@H]12 | 1.4 µM | 3.96 µM |
| COc1ccc(Sc2[nH]c(C(C)=O)c3ccccc23)cc1 | 3.89 µM | 41.4 µM |
| Cn1c(I)c(C#CCO[Si](C)(C)C(C)(C)C)c(=O)[nH]c1=O | 1.88 µM | 4.33 µM |
| CNCc1ccccc1-c1csc([C@@H](C)Nc2nc(C)nc3cc(OC)c(OC)cc23)c1 | 1.1 µM | 2.59 µM |
| O=C(Nc1ccc(Br)cc1F)c1cc(F)ccc1O | 1.13 µM | 4.92 µM |
| CC/C=C\C[C@H](O)C/C=C1/C(=O)C(Cl)=C[C@@H]1C/C=C\CCCC(=O)OC | 0.554 µM | 3.06 µM |

| SMILES | GI50 | TGI |
| --- | --- | --- |
| CN1CCN(C2CCN(C(=O)Nc3cc(Oc4ccc(NC(=O)C5(C(=O)Nc6ccc(F)cc6)CC5)c(F)c4)ccn3)CC2)CC1 | 1.03 µM | > 2.41 µM |
| CCN(CC)CCC(CNc1ccnc2cc(Cl)ccc12)c1ccc(Cl)cc1 (stereo not drawn) | 0.413 µM | 1.52 µM |
| NC(=S)N/N=C/C(=O)O | 23.9 µM | > 100 µM |
| Nc1nn2cc(F)cnc2c1C(=O)Nc1cncc(F)c1N1CCC(C(=O)N2CCN(C3COC3)CC2)CC1 | 0.165 µM | 0.682 µM |
| CCCn1cnc2c(c1=N)C(c1ccc(Cl)cc1)c1sc3c(CC)cccc3c1O2 (stereo not drawn) | 0.508 µM | 4.14 µM |
| C[N+](C)(C)CC1CCCc2ccccc2C1=O (stereo not drawn) | 1.91 µM | 3.76 µM |
| Cc1cc(C)c2c(n1)sc1c(Nc3ccc(Cl)cc3)ncnc12 | 0.0218 µM | 27 µM |
| COC(=O)C[C@](O)(CCCC(C)(C)O)C(=O)O[C@@H]1C(OC)=C[C@]23CCCN2CCc2cc4c(cc2[C@H]13)OCO4 | 0.0102 µM | 0.0367 µM |
| CC(=O)Nc1ccc(S(=O)(=O)N2C(=O)CCC2C(=O)Nc2ccc(Br)cc2)cc1 (stereo not drawn) | 1.02 µM | 5.55 µM |
| C#CCOc1cccc(-c2ncc3cc(NC(=O)CCl)ccc3n2)c1 | 1.74 µM | 3.55 µM |
| Cc1cc(Cl)cc(OCCn2cc(F)cn2)c1-c1nc(N)nc2c1CN(C(=O)NCC(C)(F)F)C2 | 0.0361 µM | 3.13 µM |
| COc1ccc(OC)c2c1[nH]c(=O)c1c3ccccc3cn21 | 1.08 µM | 2.55 µM |
| Cn1cc(C2=C(c3ccc(N)cc3)C(=O)NC2=O)c2ccccc21 | 7.84 µM | > 25 µM |
| O=C(Nc1ccc(Nc2ccncc2)cc1)c1ccc([N+](=O)[O-])cc1 | 1.75 µM | 5.2 µM |
| C=C(C=O)[C@@H]1CC[C@]2(CO)CC[C@]3(C)[C@H](CC[C@@H]4[C@@]5(C)CCCNC(C)(C)[C@@H]5CC[C@]43C)[C@@H]12 | 3.77 µM | 16.5 µM |
| COc1cc(Nc2ncccc2C(=O)NCc2cn(Cc3cccc(Oc4ccccc4)c3)nn2)cc(OC)c1 | 2.42 µM | 7.01 µM |
| COc1cc(OCc2cccc(-c3ccc(C(O)c4nccs4)cc3)c2C)cc(OC)c1C=O (stereo not drawn) | 0.267 µM | 2.51 µM |
| Cc1ccc(SC2c3ccc(C)cc3Oc3nc(N)c(C#N)c(N)c32)cc1 (stereo not drawn) | 1.77 µM | 3.74 µM |
| COc1ccccc1/C=N\N/C(N)=N\N=C\c1ccccc1OC | 0.613 µM | > 45.7 µM |
